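Assay format: 96-well plates, 48-hour exposure. GI50 = concentration required for 50% inhibition of growth.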 The source made the active and inactive calls. Rule as the data show it: active = GI50 up to about 1.1 µM and inactive = higher.
Tests used:
Assay in all cases: NCI-60 cell line screen, 48 h
[1] = system: ACHN
[2] = system: HOP-92
[3] = system: OVCAR-8
[4] = system: OVCAR-4
[5] = system: K562
[6] = system: M14
[7] = system: UACC-62
[8] = system: M19-MEL
[9] = system: OVCAR-3
[10] = system: OVCAR-5
[11] = system: TK-10
[12] = system: UO-31
[13] = system: LOX IMVI
[14] = system: U-251
[15] = system: HCC 2998
[16] = system: A498
[17] = system: NCI/ADR-RES
[18] = system: NCI-H522
[19] = system: SK-MEL-5
[20] = system: SNB-75

| SMILES | GI50 [1] | GI50 [2] | GI50 [3] | GI50 [4] | GI50 [5] | GI50 [6] | GI50 [7] | GI50 [8] | GI50 [9] | GI50 [10] | GI50 [11] | GI50 [12] | GI50 [13] | GI50 [14] | GI50 [15] | GI50 [16] | GI50 [17] | GI50 [18] | GI50 [19] | GI50 [20] |
| --- | --- | --- | --- | --- | --- | --- | --- | --- | --- | --- | --- | --- | --- | --- | --- | --- | --- | --- | --- | --- |
| CC(C)(C)c1cc(CCC(=O)Nc2ccc(Cl)cc2)nc(NC#N)n1 | > 100 µM (inactive) | 91 µM (inactive) | > 100 µM (inactive) | > 100 µM (inactive) | > 100 µM (inactive) | > 100 µM (inactive) | > 100 µM (inactive) | > 100 µM (inactive) | > 100 µM (inactive) | > 100 µM (inactive) | > 100 µM (inactive) | > 100 µM (inactive) | > 100 µM (inactive) | > 100 µM (inactive) |  |  |  |  |  |  |
| c1ccc2c(c1)ccn1ccc3c4ccccc4nc-3c21 | 0.228 µM (active) | 1.41 µM (inactive) | 0.182 µM (active) | 0.332 µM (active) | 0.194 µM (active) | 0.38 µM (active) | 1.16 µM (inactive) |  | 0.918 µM (active) | 0.475 µM (active) | 1.16 µM (inactive) | 0.34 µM (active) | 0.366 µM (active) | 0.299 µM (active) | 0.191 µM (active) | 0.0527 µM (active) | 0.33 µM (active) | 0.3 µM (active) | 0.454 µM (active) | 0.647 µM (active) |
| CC1(C)C2CCC1(C)C(OC(=O)/C=C/C(=O)OC1CC3CCC1(C)C3(C)C)C2 (configuration not stated) | > 100 µM (inactive) | 24.8 µM (inactive) | > 100 µM (inactive) | > 100 µM (inactive) | 31.9 µM (inactive) | 76.9 µM (inactive) | 31.2 µM (inactive) |  | 48.8 µM (inactive) | > 100 µM (inactive) | > 100 µM (inactive) | > 100 µM (inactive) | 21.7 µM (inactive) | 46.1 µM (inactive) | 64.4 µM (inactive) | > 100 µM (inactive) | > 100 µM (inactive) | 41 µM (inactive) | 17.9 µM (inactive) | 0.902 µM (active) |
| CC(=O)N1CCc2c([nH]c3ccc(Br)cc23)C1c1ccccc1 (configuration not stated) | > 7.36 µM (inactive) | > 10 µM (inactive) | > 5.07 µM (inactive) | > 10 µM (inactive) | 0.752 µM (active) | > 10 µM (inactive) | > 7.13 µM (inactive) |  | > 10 µM (inactive) | > 10 µM (inactive) | > 10 µM (inactive) | > 10 µM (inactive) | 2 µM (inactive) | 3.69 µM (inactive) | 9.95 µM (inactive) | > 10 µM (inactive) | 4.16 µM (inactive) | > 7.82 µM (inactive) | 2.4 µM (inactive) | 7.96 µM (inactive) |
| N/N=C1\C(OC(=O)Nc2cccc(Cl)c2)=Nc2ccccc21 | 8 µM (inactive) | 6.47 µM (inactive) | 7.31 µM (inactive) | 7.33 µM (inactive) | 5.92 µM (inactive) | 7.01 µM (inactive) | 7.78 µM (inactive) |  | 2.6 µM (inactive) | 14 µM (inactive) | 12.1 µM (inactive) | 5.32 µM (inactive) | 7.83 µM (inactive) | 6.9 µM (inactive) | 5.71 µM (inactive) | 11.4 µM (inactive) | 6.4 µM (inactive) | 3.13 µM (inactive) | 11.5 µM (inactive) | 6.22 µM (inactive) |
| c1ccc(/C(=N\Nc2nc3ccccc3s2)c2ccccn2)cc1 | 0.815 µM (active) | 7.31 µM (inactive) | 2.52 µM (inactive) | 2.66 µM (inactive) | 1.72 µM (inactive) | 3.14 µM (inactive) | 3.66 µM (inactive) |  | 0.0948 µM (active) | 3.91 µM (inactive) | 1.38 µM (inactive) | 0.0843 µM (active) | 4.04 µM (inactive) | 2.84 µM (inactive) | 14.4 µM (inactive) | 6.15 µM (inactive) | 2.7 µM (inactive) | 2.71 µM (inactive) | 2.49 µM (inactive) | 19.7 µM (inactive) |
| O=C1NC(=O)C(F)(n2cc(F)c(=O)[nH]c2=O)C(O)N1 (configuration not stated) | > 10 µM (inactive) | > 10 µM (inactive) | > 10 µM (inactive) | > 10 µM (inactive) | > 10 µM (inactive) | > 10 µM (inactive) | > 10 µM (inactive) |  | > 10 µM (inactive) | > 10 µM (inactive) | > 10 µM (inactive) | > 10 µM (inactive) | > 10 µM (inactive) | > 10 µM (inactive) | > 10 µM (inactive) | > 10 µM (inactive) | > 10 µM (inactive) | > 10 µM (inactive) | > 10 µM (inactive) | > 10 µM (inactive) |
| CC(=O)N(CN1C(=O)CCC1C(=O)O)c1cccc(O)c1 (configuration not stated) | > 100 µM (inactive) | > 100 µM (inactive) | > 100 µM (inactive) | > 100 µM (inactive) | > 100 µM (inactive) | > 100 µM (inactive) | > 100 µM (inactive) |  | > 100 µM (inactive) | > 100 µM (inactive) | > 100 µM (inactive) | > 100 µM (inactive) | > 100 µM (inactive) | > 100 µM (inactive) | > 100 µM (inactive) | > 100 µM (inactive) | > 100 µM (inactive) | > 100 µM (inactive) | > 100 µM (inactive) | > 100 µM (inactive) |

From ChEMBL document CHEMBL1201862, “PubChem BioAssay data set” (2004)
